Holding throughout (format): cell-based
One assay concerns human Ntera nerve cells. The assay can be described thus: NTera nerve fiber growth assay (assay method 2). The note with it: for activity of RGM A peptides in NTera growth assay: FIG. 6A and 6B; for inhibition of nerve fiber growth of human NTera cells: peptide concentration 30 μg/ml (higher concentration); for activity in NTera nerve fiber growth assay: peptide concentration 10 μg/ml (FIG. 6B). On the procedure: The human pluripotent carcinoma cell line Ntera (DSMZ ACC527) is an established cell culture model. In this case, axons grow out of cell aggregates and form a corona of axons around the respective aggregate.
For this purpose, 2.5×10^6 Ntera cells were seeded in a 175 cm^2 bottle and differentiated in 10 μM retinoic acid (Sigma) (medium: D-MEM (Gibco/Invitrogen 31966-021), 10% fetal calf serum, 100 u/ml penicillin, 100 μg/ml streptomycin (both Gibco/Invitrogen)) for 3 weeks. Differentiated cells were then divided 1:6 in new bottles and cultured without retinoic acid for a further 2 days. Neuronal cells adhering to the resulting cell lawn were detached by capping and aggregated by slow shaking in Neurobasal medium (Neurobasal Medium (Gibco/Invitrogen 21103-049), 2 mM L-glutamine (Gibco/Invitrogen 25030-024), 100 u/ml penicillin, 100 μg/ml streptomycin (both Gibco/Invitrogen) in a shaken flask overnight (in an incubator).
The next day, Ntera aggregates were seeded in poly-D-lysine and laminin (Sigma) (10 μg/ml) 96-well plates (Biocoat Poly-D-Lysine Cellware 96-Well Black/Clear Plate (Becton Dickinson #35 6640). The inhibitory effect of RGM peptides and fragments was analyzed by adding various concentrations of the substances to be tested.

The test system of assay [1] is Neogenin-expressing HEK293 cells. The assay can be described thus: Fragment analysis with neogenin-expressing HEK293 cells (semiquantitative dot-blot of producing clones). The following applies: stably transfected HEK293 clones. The source says:
It was previously known that the active, growth-inhibiting activity of the RGM A protein from chickens is located in the region between amino acid position 150 and 350.
Fragments of the human RGM A protein which cover this range were therefore prepared. HEK293 cells which carry the RGM receptor endogenously on their surface were then transfected with these fragments in order to prepare clonal cell cultures which produce the individual protein fragments and release them into the culture medium. All the fragments were produced as fusion proteins with attached alkaline phosphatase enzyme. The presence of the active domain in these cells should make itself noticeable by: less cellular proliferation, increased cell death and/or altered cell-substrate adhesion.
Increased cell death and less proliferation have, of course, a direct effect on the produced amount of the active fragment. The amount of the produced fragments was assessed with the aid of a semiquantitative dot-blot assay.
The RGM A fragments prepared as in preparation example 1 were introduced into HEK293 cells. […]
In addition, the ratio of strongly to non-producing clones was determined.

A further assay concerns rat cortical neurons. The assay can be described thus: Neuronal outgrowth test with rat cortical neurons (assay method 1). How it is done:
The effect of RGM peptides in vitro was investigated by carrying out neuronal outgrowth tests. For this purpose, rat cortical neurons were prepared using the following media:
Cortical neurons were obtained by sacrificing pregnant rats by cervical dislocation, opening the abdominal cavity thereof, removing the uterus with the embryos (embryonic day 18 (E18)) and washing in PBS. Microdissection scissors were used to cut open the uterus longitudinally, and the embryos were removed and exposed. The embryos were sacrificed by throat-cutting, the brain was removed and the forebrain cortex was dissected. […] The cells were counted in a Neubauer counting chamber, and the number of cells was adjusted to about 400 000 cells/0.2 ml in MM and preaggregated. […] 24-48 h later, the axonal outgrowths were initially assessed by examination under a light microscope, and the cultures were then fixed by adding 100 μl of 4% paraformaldehyde solution and stored at 4° C. for at least 12 hours. […] The fluorescence-labeled secondary antibody (Jackson ImmunoResearch, Cy3 conjugated Affinity Pure Donkey Anti Mouse #715-165-151) was diluted 1:500 in 1% bovine serum albumin solution in PBS, which additionally comprised 0.5 μg/ml bisbenzimide (H33258) to visualize the cell nuclei, and 50 μl of this dilution were incubated per well at room temperature for 1-2 h or at 4° C. overnight. […]

Entries after “also recorded” stand apart in the source; their conditions may differ. Where no end group is shown, it is not given here.

Consider “Peptide Down-1: RGM A peptide 260-275, KITEKVSGQHVEIQAK (SEQ ID NO: 26)”, for which the “activity of RGM A peptides in NTera growth assay” value (shortened to “activity of RGM A peptides”) in the assay on human Ntera nerve cells (overall result) is “large reduction in nerve fiber growth”. In the assay on human Ntera nerve cells, the “inhibition of nerve fiber growth of human NTera cells” value (“inhibition” for short) was “inhibited nerve fiber growth highly significantly”.
The corresponding values for “Peptide Up-1: RGM A peptide 276-291, YIGTTIVVRQVGRYLT (SEQ ID NO: 27)” are “large reduction in nerve fiber growth” and “inhibited nerve fiber growth highly significantly”.
On to “Peptide 5-Ak: RGM A peptide 242-259, AFVDGSKNGGDKHGANSL (SEQ ID NO: 30)”, for which, in the assay with human Ntera nerve cells (overall result), the “activity of RGM A peptides” value was “Inactive or only weakly active”. Also, the “activity in NTera nerve fiber growth assay” value with human Ntera nerve cells was “inactive”.
“Peptide 6-Ak: RGM A peptide 300-316, VVNAVEDWDSQGLYLC (SEQ ID NO: 28)”: in the assay with human Ntera nerve cells (overall result), the “activity of RGM A peptides” value is recorded as “Inactive or only weakly active”. Also, in the assay on human Ntera nerve cells, the “activity in NTera nerve fiber growth assay” value was “inactive” and the “inhibition” value is “distinct trend in the direction of inhibition of nerve fiber growth; also recorded: tendency to inhibit growth”.
For “Fragment 5: human RGM A fragment amino acids 369-422, expressed in HEK293 as AP fusion protein (PVEDLYYQACVFDLLTTGDVNFTLAAYYALEDVKMLHSNKDKLHLYERTRDLPG; also: alkaline phosphatase fusion; UniProt Q96B86 369-422, looked up, fragment)”, in the assay with human Ntera nerve cells (stated concentrations (FIG. 5B), overall result), the “activity (inhibitory for axon growth) of RGM A fragments in NTera outgrowth assay” value was “inactive”. Besides, the “Proportion of strongly producing cell clones” value in assay [1] amounted to 16%. Also, in assay [1] (low value = active fragment), the “Ratio "S producer" versus "0 producer"” value came out at 0.63.
Regarding “Peptide 4: synthetic RGM A peptide AA 378-400 of SEQ ID NO: 2 (CVFDLLTTGDVNFTLAAYYALED; listed as Homo sapiens)”, the “activity on nerve fiber growth of cortical neurons (axon growth index)” value with rat cortical neurons (concentrations 0 to 30 μg/ml (FIG. 3C)) is “no activity”. Moreover, the “influence on nerve fiber growth of rat neuronal cells” value in the assay with rat cortical neurons (peptide concentration 10 μg/ml, fluorescence micrographs (FIG. 3A)) was “inactive”. Further, in the assay with human Ntera nerve cells, the “inhibition” value is “not”.
On to “Peptide 7-Ak: RGM A peptide 217-234, TIIFKNFQECVDQKVYQA (SEQ ID NO: 29)”, for which the “activity of RGM A peptides” value in the assay on human Ntera nerve cells (overall result) was “Inactive or only weakly active”. Besides, in the assay on human Ntera nerve cells, the “activity in NTera nerve fiber growth assay” value was “inactive” and the “inhibition” value is given as “distinct trend in the direction of inhibition of nerve fiber growth; also recorded: tendency to inhibit growth”.

Values taken from patent US8906864B2, “Binding domains of proteins of the repulsive guidance molecule (RGM) protein family and functional fragments thereof, and their use” (AbbVie Deutschland GmbH & Co. KG, priority 2005, dated 2014).
